The values that follow come from US5089623A, “Certain imidate insecticides” (Imperial Chemical Industries Plc, priority 1990, dated 1992).

What all share (type): in vivo
For test [1], the system named is Black Bean Aphid [Aphis fabae (Scop.)]. Nature of the test: Black bean aphid test (BBA). As to conditions: percent of test compound in sprayed solution, 48 hours. The protocol: The compounds in Tables 1 and 2 above were tested for insecticidal activity using the following testing procedures. LC50 values, based on the results of these tests and calculated according to dosage-mortality curves, are expressed in Table 3.
Black Bean Aphid [Aphis fabae (Scop.)]
Nasturtium plants (Tropaeolum sp.) approximately 5 cm tall, were transplanted into sandy loam soil in small cups and infested with 25-50 black bean aphids of mixed ages. Twenty-four hours later they were sprayed to the point of runoff with 50-50 acetone-water solutions of the test compounds. Treated plants were held in the greenhouse and mortality was recorded after 48 hours. Test concentrations ranged from 0.05% downward. The LC-50 value is expressed below in Table 3 under the heading "BBA" in terms of percent of the test compound in the sprayed solution.

In test [2] the test system is Tobacco Budworm [Heliothis virescens (Fabricius)]. As to the kind of experiment: Tobacco budworm contact test (TBW-C). As to conditions: second-instar larvae, 5 days, percent in solution. Put shortly:
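Cotton cotyledons dipped 2–3 s in compound in 50:50 acetone–water, dried, then infested with 5 second-instar larvae and held 5 days at high humidity before scoring mortality.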

For test [3], the system named is Cabbage Looper [Trichoplusia ni (Hubner)]. Nature of the test: Cabbage looper test (CL). As to conditions: second-instar larvae, 3-5 days, percent in solution.
Test [4] relates to Housefly [Musca domestica]. As to the kind of experiment: Housefly insecticidal test (HF). As to conditions: per 25 female houseflies, 48 hours.
The subject of test [5] is Beet Armyworm (Spodoptera exigua). As to the kind of experiment: Beet armyworm test (BAW). The note with it: second-instar larvae, five days, percent in solution. Put shortly: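 Sugar beet leaves were dipped 2-3 s in compound diluted in 50-50 acetone-water, dried, then infested with five second-instar larvae in humid dishes. Mortality was scored after five days at concentrations from 0.1% downward. LC50 was taken from dosage-mortality curves as percent compound in solution.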

The test system of test [6] is Aster Leafhopper [Macrosteles fascifrens (Stal)]. Nature of the test: Aster leafhopper test (LH). As to conditions: adults/nymphs, 48 hours, percent in solution.
For test [7], the system named is Rice water weevil [Lissorhoptrus oryzophilus (Kuschel)]. As to the kind of experiment: Rice water weevil test (RWW). The note with it: per weevil, topical, female adults, 48 hours.
The subject of test [8] is Tobacco Budworm [Heliothis virescens (Fabricius)] eggs. Nature of the test: Tobacco budworm egg test (TBW-E). The note with it: percent in solution.
Test [9] concerns Maize weevil [Sitophilus Zeamais (Motschulsky)]. Nature of the test: Maize weevil test (MW). As to conditions: adult weevils, treated corn seeds, 48 hours, percent in solution. Put shortly:
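Adult weevils (10) were placed with four corn seeds that had been dipped 2-3 s in compound dissolved in 50:50 acetone:water, then dried, and held at about 25° C. Mortality was scored at 48 h. LC50 was taken from dosage-mortality curves and expressed as percent compound in solution, from a 0.01% top concentration.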

Regarding `CC(C)C(=Nc1ccc(F)c(Cl)c1)OCc1ccc(F)c(Oc2ccccc2)c1` [Compound 82], in [1], the “LC50 BBA” value stood at 0.00021%. Besides, in test [2], the “LC50 TBW C” value is reported as 0.0008%. Moreover, the “LC50 CL” value in test [3] is 0.00018%. Also, the “LC50 HF” value in test [4] came to 2.5 µg. Also, the “LC50 BAW” value in [5] was 0.0025%. Further, in [6], the “LC50 LH” value is recorded as 0.0001%. The “LC50 RWW” value in test [7] came to 0.086 µg. Besides, the “LC50 TBW E” value in test [8] was determined as 0.006%.
Consider `CC(C)C(=Nc1ccc(F)c(F)c1F)OCc1ccc(F)c(Oc2ccc(F)cc2)c1` [Compound 349], for which the “LC50 BBA” value in test [1] is more than 0.05%. Moreover, in test [2], the “LC50 TBW C” value came out at 0.0004%. Moreover, in [3], the “LC50 CL” value is on record as 0.00007%. Also, the “LC50 HF” value in test [4] is 4.9 µg. For the same compound, in test [5], the “LC50 BAW” value is more than 0.1%. Moreover, the “LC50 RWW” value in [7] is more than 2.5 µg. Besides, in [8], the “LC50 TBW E” value was more than 0.1%. Moreover, the “LC50 MW” value in test [9] was more than 0.01%.
